# In paper PMC8550792, “Evolution of kinase polypharmacology across HSP90 drug discovery” (Cell Chemical Biology, 2021):
# Columns and labels:
# Experiment in all cases: biochemical
# Format in all cases: biochemical
# [1] = target: T1, 382 unique human kinases (Homo sapiens, UniProt O96013); settings: PAK4, compound at 10 uM, duplicate values; for remaining activity at 10 µM: read-out: % Enzyme Activity (relative to DMSO controls)
# T1 construct: purchased Reaction Biology (HotSpot contract assay)
# [2] = target: T2, 382 unique human kinases (Homo sapiens, UniProt P20794); settings: kinase MAK, compound 10 uM; for remaining activity at 10 µM: read-out: % Enzyme Activity (relative to DMSO controls)
# T2 construct: purchased Reaction Biology (HotSpot contract assay)
# T2 sequence (P20794 1-623): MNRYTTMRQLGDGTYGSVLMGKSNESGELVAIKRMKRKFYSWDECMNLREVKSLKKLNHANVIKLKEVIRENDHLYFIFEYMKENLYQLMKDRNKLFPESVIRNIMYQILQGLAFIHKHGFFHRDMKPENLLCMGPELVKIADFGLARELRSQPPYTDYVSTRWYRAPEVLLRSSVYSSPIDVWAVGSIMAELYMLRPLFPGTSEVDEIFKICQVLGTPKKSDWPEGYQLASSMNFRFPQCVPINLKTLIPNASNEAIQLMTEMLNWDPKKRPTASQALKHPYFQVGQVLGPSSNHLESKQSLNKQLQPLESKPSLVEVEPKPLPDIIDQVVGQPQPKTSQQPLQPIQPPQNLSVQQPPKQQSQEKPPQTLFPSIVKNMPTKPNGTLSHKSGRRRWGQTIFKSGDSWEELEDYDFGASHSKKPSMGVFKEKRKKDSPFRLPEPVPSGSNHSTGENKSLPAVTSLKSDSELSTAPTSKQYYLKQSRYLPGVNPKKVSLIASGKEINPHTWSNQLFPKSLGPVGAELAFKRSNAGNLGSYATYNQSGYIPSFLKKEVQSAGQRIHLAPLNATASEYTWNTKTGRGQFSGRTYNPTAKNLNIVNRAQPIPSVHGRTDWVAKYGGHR
# [3] = target: T3, 382 unique human kinases (Homo sapiens, UniProt P37173); settings: kinase TGFBR2, compound 10 uM; for remaining activity at 10 µM: read-out: % Enzyme Activity (relative to DMSO controls)
# T3 construct: purchased Reaction Biology (HotSpot contract assay)
# [4] = target: T4, 382 unique human kinases (Homo sapiens, UniProt P48730); settings: CK1d, 10 uM; for remaining activity at 10 µM: read-out: % Enzyme Activity (relative to DMSO controls)
# T4 construct: purchased Reaction Biology (HotSpot contract assay)
# [5] = target: T5, 382 unique human kinases (Homo sapiens, UniProt P51812); settings: RSK2, 10 uM; for remaining activity at 10 µM: read-out: % Enzyme Activity (relative to DMSO controls)
# T5 construct: purchased Reaction Biology (HotSpot contract assay)
# [6] = target: T6, 382 unique human kinases (Homo sapiens, UniProt Q16832, T654M); settings: DDR2 (T654M), 10 uM; for remaining activity at 10 µM: read-out: % Enzyme Activity (relative to DMSO controls)
# T6 construct: purchased Reaction Biology (HotSpot contract assay)
# T6 sequence (Q16832 22-855 T654M): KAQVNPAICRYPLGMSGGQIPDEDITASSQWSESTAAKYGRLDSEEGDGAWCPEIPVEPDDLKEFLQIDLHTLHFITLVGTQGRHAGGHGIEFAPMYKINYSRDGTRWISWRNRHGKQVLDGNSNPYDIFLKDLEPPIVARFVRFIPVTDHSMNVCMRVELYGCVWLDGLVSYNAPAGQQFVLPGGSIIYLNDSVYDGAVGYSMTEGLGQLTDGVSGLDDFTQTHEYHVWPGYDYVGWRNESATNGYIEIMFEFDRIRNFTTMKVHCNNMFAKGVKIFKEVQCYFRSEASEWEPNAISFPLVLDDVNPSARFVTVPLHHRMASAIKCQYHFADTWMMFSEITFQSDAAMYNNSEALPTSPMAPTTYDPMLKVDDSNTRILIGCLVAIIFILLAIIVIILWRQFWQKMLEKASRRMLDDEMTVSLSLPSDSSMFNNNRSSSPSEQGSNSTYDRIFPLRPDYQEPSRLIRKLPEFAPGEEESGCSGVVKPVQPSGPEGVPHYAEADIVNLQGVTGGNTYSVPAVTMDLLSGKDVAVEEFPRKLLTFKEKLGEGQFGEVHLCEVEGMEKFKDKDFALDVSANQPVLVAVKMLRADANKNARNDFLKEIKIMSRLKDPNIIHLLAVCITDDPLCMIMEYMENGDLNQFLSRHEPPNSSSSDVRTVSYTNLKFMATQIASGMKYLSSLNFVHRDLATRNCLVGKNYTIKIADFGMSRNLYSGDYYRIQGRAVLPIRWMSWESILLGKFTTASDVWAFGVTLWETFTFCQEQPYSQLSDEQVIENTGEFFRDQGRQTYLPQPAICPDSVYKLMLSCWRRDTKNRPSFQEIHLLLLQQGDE
# [7] = target: T7, 382 unique human kinases (Homo sapiens, UniProt Q8NEV4); settings: MYO3A, 10 uM; for remaining activity at 10 µM: read-out: % Enzyme Activity (relative to DMSO controls)
# T7 construct: purchased Reaction Biology (HotSpot contract assay)
# [8] = target: T8, 382 unique human kinases (Homo sapiens, UniProt Q14012); settings: CAMK1a, 10 uM; for remaining activity at 10 µM: read-out: % Enzyme Activity (relative to DMSO controls)
# T8 construct: purchased Reaction Biology (HotSpot contract assay)
# [9] = target: T9, 382 unique human kinases (Homo sapiens, UniProt Q8IY84); settings: NIM1, 10 uM; for remaining activity at 10 µM: read-out: % Enzyme Activity (relative to DMSO controls)
# T9 construct: purchased Reaction Biology (HotSpot contract assay)
# T9 sequence (Q8IY84 whole entry): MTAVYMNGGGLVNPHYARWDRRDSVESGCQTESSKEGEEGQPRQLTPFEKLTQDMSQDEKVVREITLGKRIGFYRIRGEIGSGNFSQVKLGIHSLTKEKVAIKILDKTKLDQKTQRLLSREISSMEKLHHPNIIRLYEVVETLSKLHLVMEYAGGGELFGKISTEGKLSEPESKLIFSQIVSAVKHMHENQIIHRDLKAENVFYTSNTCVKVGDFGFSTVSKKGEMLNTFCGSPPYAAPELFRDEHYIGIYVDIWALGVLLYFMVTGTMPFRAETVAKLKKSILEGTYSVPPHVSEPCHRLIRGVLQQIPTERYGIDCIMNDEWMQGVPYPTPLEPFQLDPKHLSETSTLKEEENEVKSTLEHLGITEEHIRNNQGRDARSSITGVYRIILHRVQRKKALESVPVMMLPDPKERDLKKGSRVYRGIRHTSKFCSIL
# T5 sequence (P51812 whole entry): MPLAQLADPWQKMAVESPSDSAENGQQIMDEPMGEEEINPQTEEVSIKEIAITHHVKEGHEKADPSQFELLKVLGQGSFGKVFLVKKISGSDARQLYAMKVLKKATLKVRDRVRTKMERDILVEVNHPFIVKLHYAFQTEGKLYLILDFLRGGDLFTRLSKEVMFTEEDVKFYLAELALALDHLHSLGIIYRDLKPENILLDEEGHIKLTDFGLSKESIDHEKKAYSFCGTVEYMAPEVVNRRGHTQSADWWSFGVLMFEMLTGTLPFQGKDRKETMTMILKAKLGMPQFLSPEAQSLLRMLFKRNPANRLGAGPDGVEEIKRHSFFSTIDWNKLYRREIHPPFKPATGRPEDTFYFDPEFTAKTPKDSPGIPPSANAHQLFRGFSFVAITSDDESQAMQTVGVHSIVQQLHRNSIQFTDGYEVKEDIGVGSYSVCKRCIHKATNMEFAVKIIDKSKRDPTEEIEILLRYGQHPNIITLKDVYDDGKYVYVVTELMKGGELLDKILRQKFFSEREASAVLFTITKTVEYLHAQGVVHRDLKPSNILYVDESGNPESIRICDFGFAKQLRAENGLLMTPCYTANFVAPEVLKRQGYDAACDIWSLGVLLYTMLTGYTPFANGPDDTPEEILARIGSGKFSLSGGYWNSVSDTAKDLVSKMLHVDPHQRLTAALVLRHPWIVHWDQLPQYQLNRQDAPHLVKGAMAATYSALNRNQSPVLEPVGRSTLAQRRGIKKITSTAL
# T1 sequence (O96013 whole entry): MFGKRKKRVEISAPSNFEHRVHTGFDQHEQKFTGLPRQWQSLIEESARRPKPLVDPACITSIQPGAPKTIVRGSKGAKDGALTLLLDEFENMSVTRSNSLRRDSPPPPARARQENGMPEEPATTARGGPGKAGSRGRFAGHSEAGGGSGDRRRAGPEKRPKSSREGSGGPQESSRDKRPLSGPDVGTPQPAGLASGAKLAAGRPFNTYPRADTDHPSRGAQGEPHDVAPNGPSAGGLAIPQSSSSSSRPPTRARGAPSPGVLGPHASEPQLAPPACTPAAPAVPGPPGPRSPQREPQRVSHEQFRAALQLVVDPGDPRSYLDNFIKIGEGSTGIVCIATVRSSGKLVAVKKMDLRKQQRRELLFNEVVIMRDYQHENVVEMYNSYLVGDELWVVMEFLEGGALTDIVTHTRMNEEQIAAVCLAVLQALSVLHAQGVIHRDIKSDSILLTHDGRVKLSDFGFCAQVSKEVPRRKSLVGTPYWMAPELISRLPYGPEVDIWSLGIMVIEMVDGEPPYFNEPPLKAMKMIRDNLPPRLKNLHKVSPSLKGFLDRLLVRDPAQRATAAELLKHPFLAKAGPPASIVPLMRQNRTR
# T4 sequence (P48730 whole entry): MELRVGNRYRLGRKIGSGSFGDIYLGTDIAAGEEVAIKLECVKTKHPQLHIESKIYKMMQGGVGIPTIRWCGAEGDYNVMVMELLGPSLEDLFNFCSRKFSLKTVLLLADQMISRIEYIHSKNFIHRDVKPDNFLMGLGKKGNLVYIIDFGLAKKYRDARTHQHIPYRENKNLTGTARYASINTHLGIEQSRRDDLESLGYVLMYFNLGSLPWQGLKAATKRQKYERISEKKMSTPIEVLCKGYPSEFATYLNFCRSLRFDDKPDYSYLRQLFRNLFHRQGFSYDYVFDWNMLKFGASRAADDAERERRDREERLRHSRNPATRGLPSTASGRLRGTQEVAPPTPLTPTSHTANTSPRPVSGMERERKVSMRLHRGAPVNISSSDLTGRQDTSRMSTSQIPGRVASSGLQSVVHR
# T3 sequence (P37173 23-567): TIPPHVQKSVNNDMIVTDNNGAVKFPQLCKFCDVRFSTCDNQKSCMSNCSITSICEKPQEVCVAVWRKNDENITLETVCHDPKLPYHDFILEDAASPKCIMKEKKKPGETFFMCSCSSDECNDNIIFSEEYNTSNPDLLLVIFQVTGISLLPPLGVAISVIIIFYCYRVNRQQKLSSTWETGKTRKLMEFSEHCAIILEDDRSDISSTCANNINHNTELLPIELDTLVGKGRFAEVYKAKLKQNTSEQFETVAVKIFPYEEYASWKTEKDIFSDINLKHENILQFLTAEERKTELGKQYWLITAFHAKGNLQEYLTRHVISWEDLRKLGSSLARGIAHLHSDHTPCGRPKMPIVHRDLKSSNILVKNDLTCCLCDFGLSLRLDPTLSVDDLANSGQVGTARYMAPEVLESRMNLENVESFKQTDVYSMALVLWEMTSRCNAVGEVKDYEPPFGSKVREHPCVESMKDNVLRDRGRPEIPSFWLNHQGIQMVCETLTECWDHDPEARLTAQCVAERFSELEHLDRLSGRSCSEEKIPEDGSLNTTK
# T7 sequence (Q8NEV4 whole entry): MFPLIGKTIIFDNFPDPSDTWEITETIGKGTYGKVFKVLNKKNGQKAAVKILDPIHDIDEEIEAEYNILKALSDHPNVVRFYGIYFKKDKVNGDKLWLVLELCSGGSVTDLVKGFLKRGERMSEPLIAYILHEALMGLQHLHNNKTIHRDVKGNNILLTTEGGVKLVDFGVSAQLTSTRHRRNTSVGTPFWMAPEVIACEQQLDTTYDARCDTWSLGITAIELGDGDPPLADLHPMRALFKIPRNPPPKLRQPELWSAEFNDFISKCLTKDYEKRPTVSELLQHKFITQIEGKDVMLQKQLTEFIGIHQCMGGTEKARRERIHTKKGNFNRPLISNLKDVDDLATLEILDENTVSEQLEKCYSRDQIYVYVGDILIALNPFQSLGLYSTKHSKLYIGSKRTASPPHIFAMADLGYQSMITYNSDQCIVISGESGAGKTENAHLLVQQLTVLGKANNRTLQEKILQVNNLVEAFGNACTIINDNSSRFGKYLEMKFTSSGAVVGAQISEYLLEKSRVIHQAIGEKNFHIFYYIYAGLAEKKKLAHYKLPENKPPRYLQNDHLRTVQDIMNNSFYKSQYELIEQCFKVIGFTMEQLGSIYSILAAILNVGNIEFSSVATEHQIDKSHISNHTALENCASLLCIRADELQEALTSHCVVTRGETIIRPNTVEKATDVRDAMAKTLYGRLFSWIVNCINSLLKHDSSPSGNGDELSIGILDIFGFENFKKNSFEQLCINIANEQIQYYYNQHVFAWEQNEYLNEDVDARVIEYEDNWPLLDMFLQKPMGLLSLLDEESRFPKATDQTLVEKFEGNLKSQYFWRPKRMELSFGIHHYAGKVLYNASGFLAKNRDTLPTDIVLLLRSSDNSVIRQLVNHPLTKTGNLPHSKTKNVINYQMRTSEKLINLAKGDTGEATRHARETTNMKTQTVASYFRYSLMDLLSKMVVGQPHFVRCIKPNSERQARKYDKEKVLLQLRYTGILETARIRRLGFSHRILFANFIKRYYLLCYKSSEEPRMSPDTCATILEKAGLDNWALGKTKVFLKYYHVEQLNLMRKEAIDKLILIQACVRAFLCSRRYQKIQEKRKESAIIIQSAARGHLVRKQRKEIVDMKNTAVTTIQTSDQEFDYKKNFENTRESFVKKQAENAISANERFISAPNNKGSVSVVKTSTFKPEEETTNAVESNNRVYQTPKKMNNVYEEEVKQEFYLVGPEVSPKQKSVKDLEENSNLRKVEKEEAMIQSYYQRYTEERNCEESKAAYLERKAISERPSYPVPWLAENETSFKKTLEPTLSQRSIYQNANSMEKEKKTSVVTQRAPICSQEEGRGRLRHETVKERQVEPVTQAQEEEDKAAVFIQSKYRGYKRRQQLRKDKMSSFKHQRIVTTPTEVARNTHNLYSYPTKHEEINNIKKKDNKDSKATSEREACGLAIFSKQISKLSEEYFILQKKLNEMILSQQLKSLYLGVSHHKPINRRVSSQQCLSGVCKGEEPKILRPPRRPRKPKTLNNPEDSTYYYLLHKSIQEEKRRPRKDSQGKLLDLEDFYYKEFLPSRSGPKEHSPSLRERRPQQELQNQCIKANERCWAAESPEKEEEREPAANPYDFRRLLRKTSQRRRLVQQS
# T8 sequence (Q14012 whole entry): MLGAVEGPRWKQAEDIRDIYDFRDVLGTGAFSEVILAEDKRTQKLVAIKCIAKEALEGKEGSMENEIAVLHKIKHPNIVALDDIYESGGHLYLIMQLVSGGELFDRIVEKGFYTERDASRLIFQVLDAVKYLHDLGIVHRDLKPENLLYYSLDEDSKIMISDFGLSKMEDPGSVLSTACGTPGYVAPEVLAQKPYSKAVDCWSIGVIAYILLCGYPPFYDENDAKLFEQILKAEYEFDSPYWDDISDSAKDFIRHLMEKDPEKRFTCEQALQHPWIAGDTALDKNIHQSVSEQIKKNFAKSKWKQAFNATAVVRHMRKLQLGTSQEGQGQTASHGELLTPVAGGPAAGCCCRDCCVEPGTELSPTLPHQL
Compound,remaining activity at 10 µM [1] [%],remaining activity at 10 µM [2] [%],remaining activity at 10 µM [3] [%],remaining activity at 10 µM [4] [%],remaining activity at 10 µM [5] [%],remaining activity at 10 µM [6] [%],remaining activity at 10 µM [7] [%],remaining activity at 10 µM [8] [%],remaining activity at 10 µM [9] [%],% Enzyme Activity (relative to DMSO controls) [8] [%],% Enzyme Activity (relative to DMSO controls) [9] [%],% Enzyme Activity (relative to DMSO controls) [1] [%],% Enzyme Activity (relative to DMSO controls) [2] [%],% Enzyme Activity (relative to DMSO controls) [3] [%],% Enzyme Activity (relative to DMSO controls) [4] [%],% Enzyme Activity (relative to DMSO controls) [5] [%],% Enzyme Activity (relative to DMSO controls) [6] [%],% Enzyme Activity (relative to DMSO controls) [7] [%]
CC(C)c1cc(-c2n[nH]c(=O)n2-c2ccc3c(ccn3C)c2)c(O)cc1O [Ganetespib (STA9090)],129,86.4,92.9,81.2,78.8,75,97.3,,,,,,,,,,,
CC(C)c1cc(-c2n[nH]c(=O)n2-c2ccc3c(ccn3C)c2)c(O)cc1O [Ganetespib],,,,,,,,91.4,90.5,,,,,,,,,
CCNC(=O)c1noc(-c2cc(C(C)C)c(O)cc2O)c1-c1ccc(CN2CCOCC2)cc1 [Luminespib],,,,,,,,109,99.8,103.58,99.73,,,,,,,
CCNC(=O)c1noc(-c2cc(C(C)C)c(O)cc2O)c1-c1ccc(CN2CCOCC2)cc1 [Luminespib (AUY-922)],119,94.7,129,83.5,93.5,102,76.4,,,,,118.57,94.57,124.56,81.12,92.24,100.41,74.72
